Measured values published in patent US20140228278A1, “ANTIBIOTICS AND METHODS FOR MANUFACTURING THE SAME” (priority 2011, published 2014).
Values after ≈ are worked out from the molar mass of the structure shown.

How the values were obtained:
[1] = system: E. coli K12; assay: Agar bioassay, growth suppression seen as clear zone; assay type: cell-based; set-up: key: ++: inhibition; +: weak inhibition; −: no inhibition; conditions: indicator strain E. coli K12
[2] = system: B. amylo. FZB42; assay type: cell-based, Bacillus amyloliquefaciens
[3] = system: Staphylococcus aureus st. NRS384/USA300 [MRSA]; assay type: cell-based
[4] = system: Bacillus megaterium 7A1; assay type: cell-based; set-up: key: ++: inhibition; +: weak inhibition; −: no inhibition
[5] = system: Bacillus subtilis 168; assay: Agar bioassay, growth suppression seen as clear zone; assay type: cell-based; set-up: key: ++: inhibition; +: weak inhibition; −: no inhibition; conditions: indicator strain Bacillus subtilis 168
[6] = system: Erwinia caratovora; assay type: cell-based; set-up: key: ++: inhibition; +: weak inhibition; −: no inhibition
[7] = system: Bacillus pumilus; assay type: cell-based; set-up: key: ++: inhibition; +: weak inhibition; −: no inhibition
[8] = system: Bacillus licheniformis ATCC9789; assay type: cell-based; set-up: key: ++: inhibition; +: weak inhibition; −: no inhibition
[9] = system: Bacillus sphaericus; assay type: cell-based; set-up: key: ++: inhibition; +: weak inhibition; −: no inhibition
[10] = system: Streptococcus pyogenes; assay type: cell-based
[11] = system: Bacillus brevis ATCC8246; assay type: cell-based; set-up: key: ++: inhibition; +: weak inhibition; −: no inhibition
[12] = system: B. amylo. (NRRL B-14393); assay type: cell-based, Bacillus amyloliquefaciens
[13] = system: B. anthracis strain Sterne; assay type: cell-based, Bacillus anthracis
[14] = system: Bacillus subtilis CU1065; assay: Agar bioassay, growth suppression seen as clear zone; assay type: cell-based; set-up: key: ++: inhibition; +: weak inhibition; −: no inhibition; conditions: indicator strain Bacillus subtilis CU1065
[15] = system: Paenibacillus polymyxa; assay type: cell-based; set-up: key: ++: inhibition; +: weak inhibition; −: no inhibition
[16] = system: B. pumilus ATCC 7061; assay type: cell-based, Bacillus pumilus
[17] = system: Bacillus subtilis HB0042; assay: Agar bioassay, growth suppression seen as clear zone; assay type: cell-based; set-up: key: ++: inhibition; +: weak inhibition; −: no inhibition; conditions: indicator strain Bacillus subtilis HB0042
[18] = system: Pseudomonas sp.; assay: as above; assay type: cell-based; set-up: key: ++: inhibition; +: weak inhibition; −: no inhibition; conditions: indicator strain Pseudomonas sp.
[19] = system: Klebsiella terrigena; assay: as above; assay type: cell-based; set-up: key: ++: inhibition; +: weak inhibition; −: no inhibition; conditions: indicator strain Klebsiella terrigena
[20] = system: Paenibacillus granivorans; assay type: cell-based; set-up: key: ++: inhibition; +: weak inhibition; −: no inhibition
[21] = system: B. anthracis strain Sterne; assay type: cell-based, Bacillus anthracis; remark: listed apart in the source
[22] = system: Bacillus cereus ATCC14579; assay type: cell-based; set-up: key: ++: inhibition; +: weak inhibition; −: no inhibition
[23] = system: any other tested bacterium; assay type: cell-based
[24] = system: Arthrobacter sp.; assay type: cell-based; set-up: key: ++: inhibition; +: weak inhibition; −: no inhibition
[25] = system: Staphylococcus aureus; assay: Agar bioassay, growth suppression seen as clear zone; assay type: cell-based; set-up: key: ++: inhibition; +: weak inhibition; −: no inhibition; conditions: indicator strain Staphylococcus aureus
[26] = system: Micrococcus luteus; assay type: cell-based; set-up: key: ++: inhibition; +: weak inhibition; −: no inhibition
[27] = system: B. anthracis; assay type: cell-based, Bacillus anthracis
[28] = system: Enterococcus faecalis st. U503 [VRE]; assay type: cell-based
[29] = system: Listeria monocytogenes; assay type: cell-based

Structure (SMILES): CC[C@H](C)[C@H](NC(=O)c1nc(-c2nc(-c3csc(-c4nc(-c5csc(C(CCCN=C(N)N)N(C)C)n5)oc4C)n3)oc2C)oc1C)C(=O)N[C@H](c1nc(-c2nc(-c3nc(-c4nc(C5=NC(C(=O)N[C@@H](Cc6ccccc6)C(=O)O)C(C)O5)co4)co3)co2)co1)[C@@H](C)CC (stereo partly drawn) [PZN, plantazolicin]
- Degree of inhibition in a bioassay [1]: −
- Susceptibility to the action of PZN [2]: no observable inhibition
- Growth inhibition in microbroth dilution bioassay [3]: unaffected
- Degree of inhibition in a bioassay [4]: ++
- Degree of inhibition in a bioassay [5]: +
- Degree of inhibition in a bioassay [6]: −
- Degree of inhibition in a bioassay [7]: −
- Degree of inhibition in a bioassay [8]: +
- Degree of inhibition in a bioassay [9]: +
- Growth inhibition in microbroth dilution bioassay [10]: only inhibited by very high concentrations
- Degree of inhibition in a bioassay [11]: +
- Susceptibility to the action of PZN [12]: completely resistant
- Mode of action (bactericidal) on reculturing of treated cells in the absence of PZN [13]: bactericidal
- Degree of inhibition in a bioassay [14]: +
- Degree of inhibition in a bioassay [15]: −
- Susceptibility to the action of PZN [16]: no observable inhibition
- Degree of inhibition in a bioassay [17]: ++
- Degree of inhibition in a bioassay [18]: −
- Degree of inhibition in a bioassay [19]: −
- Degree of inhibition in a bioassay [20]: +
- Growth inhibition / activity against B. anthracis in microbroth dilution bioassay [21]: potent growth inhibition
- MIC99 [21]: 4 µg/mL (≈ 2.99 µM)
- Degree of inhibition in a bioassay [22]: +
- Inhibition zones in agar diffusion bioassay [23]: inhibition zones were not observed
- Degree of inhibition in a bioassay [24]: −
- Degree of inhibition in a bioassay [25]: −
- Degree of inhibition in a bioassay [26]: +
- Cell morphology by DIC microscopy [27]: massive lysis
- Growth inhibition in microbroth dilution bioassay [28]: unaffected
- Growth inhibition in microbroth dilution bioassay [29]: unaffected
